Test in all cases: KINOMEscan
The subject of one test is FLT3 (ITD, D835V). The format is binding, human. The settings on record: 10 μM. How it is done:
(§1) Kinase profiling was performed by KINOMEscan (Eurofins Pharma Discovery, San Diego, CA, USA), using a panel of 423 protein kinases, as described previously. Compounds were submitted for dissociation constant (Kd) determination toward several target kinases using KINOMEscan. […] Binding reactions were performed at room temperature for 1 h, and the fraction of kinase not bound to the test compound was determined by capture with an immobilized affinity ligand and quantified by quantitative polymerase chain reaction. The primary screening at fixed concentrations of the compound was performed in duplicate. For dissociation constant Kd determination, a 12-point half-log dilution series (a maximum concentration of 33 μM) was used.

Test [1] concerns EGFR (L747-T751 del, Sins). In kind it is binding, human. Particulars: 10 μM. The protocol: as §1
The subject of the next test is FLT3 (ITD, F691L). In kind it is binding, human. The settings on record: 10 μM. How it is done:
as §1

The test system of a further test is FLT3 (ITD). In kind it is binding, human. Particulars: 10 μM. How it is done: as §1
The target in the next test is T1, TYK2 (JH1 domain-cat.) (Homo sapiens, UniProt P29597).
T1 construct: TYK2 (JH1 domain-cat.); purchased Eurofins DiscoverX KINOMEscan
The format is binding. In short, it runs like this: (§2)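 Compound and kinase were incubated at room temperature for 1 h, the free kinase fraction was captured with an immobilized affinity ligand, and capture was quantified by quantitative PCR; Kd values used a 12-point half-log series up to 33 μM.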

A further test addresses T2, CSK (Homo sapiens, UniProt P41240).
T2 construct: purchased Eurofins DiscoverX KINOMEscan
The format is binding. The gist of the method:
as §2

Another test deals with T3, VPS34 (Homo sapiens, UniProt Q8NEB9).
T3 construct: purchased Eurofins DiscoverX KINOMEscan
In kind it is binding. The gist of the method:
as §2

For a further test, the target named is T4, LRRK2 (Homo sapiens, UniProt Q5S007).
T4 construct: purchased Eurofins DiscoverX KINOMEscan
The format is binding. The gist of the method: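 1 h RT binding → immobilized-ligand capture of free kinase → qPCR quantitation. Kd: 12 half-log points, max 33 μM.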

The next test concerns the target T5, ABL1 (F317I)-P (Homo sapiens, UniProt P00519, F317I).
T5 construct: purchased Eurofins DiscoverX KINOMEscan
In kind it is binding. In short, it runs like this: as §2

The next test has as its target T6, BLK (Homo sapiens, UniProt P51451).
T6 construct: purchased Eurofins DiscoverX KINOMEscan
In kind it is binding. In short, it runs like this:
as §2

Another test deals with T7, TIE2 (Homo sapiens, UniProt Q02763).
T7 construct: purchased Eurofins DiscoverX KINOMEscan
In kind it is binding. In short, it runs like this: as §2

Another test has as its target T8, BMPR1B (Homo sapiens, UniProt O00238).
T8 construct: purchased Eurofins DiscoverX KINOMEscan
The format is binding. In short, it runs like this:
as §2

The target of the next test is T9, FLT3 (R834Q) (Homo sapiens, UniProt P36888, R834Q).
T9 construct: purchased Eurofins DiscoverX KINOMEscan
In kind it is binding. In short, it runs like this: as §2

The target of a further test is T10, PKN2 (Homo sapiens, UniProt Q16513).
T10 construct: purchased Eurofins DiscoverX KINOMEscan
The format is binding. In short, it runs like this: as §2

The structures appear in SMILES notation.

As a reminder, the inhibition is the share of the control response that was lost under treatment.

T5 sequence (P00519 whole entry F317I): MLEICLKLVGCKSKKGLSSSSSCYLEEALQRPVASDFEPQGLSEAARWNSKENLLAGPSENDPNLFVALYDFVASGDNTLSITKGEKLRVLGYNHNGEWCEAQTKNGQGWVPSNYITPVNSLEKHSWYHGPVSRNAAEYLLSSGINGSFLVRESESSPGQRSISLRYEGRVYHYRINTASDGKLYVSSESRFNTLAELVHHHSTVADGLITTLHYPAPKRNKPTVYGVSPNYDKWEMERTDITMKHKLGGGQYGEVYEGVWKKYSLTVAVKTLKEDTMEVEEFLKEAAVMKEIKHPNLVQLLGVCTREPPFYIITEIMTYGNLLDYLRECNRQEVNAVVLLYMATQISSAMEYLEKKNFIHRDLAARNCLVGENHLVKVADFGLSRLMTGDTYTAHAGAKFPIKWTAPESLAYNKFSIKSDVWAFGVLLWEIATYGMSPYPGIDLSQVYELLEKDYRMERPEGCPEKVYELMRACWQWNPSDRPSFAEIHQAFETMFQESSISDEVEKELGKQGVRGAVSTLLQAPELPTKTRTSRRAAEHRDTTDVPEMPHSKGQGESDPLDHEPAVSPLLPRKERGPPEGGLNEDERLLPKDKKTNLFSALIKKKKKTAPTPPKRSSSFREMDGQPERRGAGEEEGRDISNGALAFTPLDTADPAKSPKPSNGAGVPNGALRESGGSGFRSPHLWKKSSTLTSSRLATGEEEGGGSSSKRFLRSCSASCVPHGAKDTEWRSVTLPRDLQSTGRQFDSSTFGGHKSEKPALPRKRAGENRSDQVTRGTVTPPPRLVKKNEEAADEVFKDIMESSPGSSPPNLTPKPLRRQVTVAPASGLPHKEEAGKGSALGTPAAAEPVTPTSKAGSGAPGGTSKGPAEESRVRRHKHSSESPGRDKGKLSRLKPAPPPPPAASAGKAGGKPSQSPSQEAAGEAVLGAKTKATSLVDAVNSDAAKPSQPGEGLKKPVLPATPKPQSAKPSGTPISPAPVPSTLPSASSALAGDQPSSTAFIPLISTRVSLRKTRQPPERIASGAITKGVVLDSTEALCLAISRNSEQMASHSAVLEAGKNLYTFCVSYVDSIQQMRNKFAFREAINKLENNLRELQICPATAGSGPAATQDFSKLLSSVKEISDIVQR
T7 sequence (Q02763 23-1124): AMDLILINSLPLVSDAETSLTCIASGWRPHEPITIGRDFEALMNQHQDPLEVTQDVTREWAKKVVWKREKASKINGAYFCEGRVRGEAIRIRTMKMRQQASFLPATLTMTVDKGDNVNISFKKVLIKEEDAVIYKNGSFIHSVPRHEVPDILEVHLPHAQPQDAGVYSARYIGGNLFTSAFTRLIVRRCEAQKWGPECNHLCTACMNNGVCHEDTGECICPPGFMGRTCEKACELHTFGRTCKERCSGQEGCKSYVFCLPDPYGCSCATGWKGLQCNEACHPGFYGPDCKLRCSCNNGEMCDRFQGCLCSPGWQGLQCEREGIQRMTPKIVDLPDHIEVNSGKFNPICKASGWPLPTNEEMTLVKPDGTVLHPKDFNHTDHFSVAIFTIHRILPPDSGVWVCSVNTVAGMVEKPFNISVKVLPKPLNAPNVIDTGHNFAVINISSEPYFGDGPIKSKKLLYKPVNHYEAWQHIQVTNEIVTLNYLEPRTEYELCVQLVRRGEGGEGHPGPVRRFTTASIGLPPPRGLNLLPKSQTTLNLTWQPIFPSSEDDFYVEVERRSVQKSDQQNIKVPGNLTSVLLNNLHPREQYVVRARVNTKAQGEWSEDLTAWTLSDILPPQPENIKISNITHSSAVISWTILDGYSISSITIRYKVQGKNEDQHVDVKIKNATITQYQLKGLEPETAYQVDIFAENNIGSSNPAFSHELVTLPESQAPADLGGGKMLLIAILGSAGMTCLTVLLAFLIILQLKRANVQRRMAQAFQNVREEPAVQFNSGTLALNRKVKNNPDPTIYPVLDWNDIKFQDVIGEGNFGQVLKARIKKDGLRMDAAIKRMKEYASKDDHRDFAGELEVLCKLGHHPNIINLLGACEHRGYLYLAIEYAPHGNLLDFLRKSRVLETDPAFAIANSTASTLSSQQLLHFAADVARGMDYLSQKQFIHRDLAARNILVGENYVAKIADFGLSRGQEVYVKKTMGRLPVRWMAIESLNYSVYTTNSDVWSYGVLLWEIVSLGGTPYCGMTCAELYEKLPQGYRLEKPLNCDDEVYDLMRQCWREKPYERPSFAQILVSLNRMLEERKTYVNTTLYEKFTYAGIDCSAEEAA
T8 sequence (O00238 14-502): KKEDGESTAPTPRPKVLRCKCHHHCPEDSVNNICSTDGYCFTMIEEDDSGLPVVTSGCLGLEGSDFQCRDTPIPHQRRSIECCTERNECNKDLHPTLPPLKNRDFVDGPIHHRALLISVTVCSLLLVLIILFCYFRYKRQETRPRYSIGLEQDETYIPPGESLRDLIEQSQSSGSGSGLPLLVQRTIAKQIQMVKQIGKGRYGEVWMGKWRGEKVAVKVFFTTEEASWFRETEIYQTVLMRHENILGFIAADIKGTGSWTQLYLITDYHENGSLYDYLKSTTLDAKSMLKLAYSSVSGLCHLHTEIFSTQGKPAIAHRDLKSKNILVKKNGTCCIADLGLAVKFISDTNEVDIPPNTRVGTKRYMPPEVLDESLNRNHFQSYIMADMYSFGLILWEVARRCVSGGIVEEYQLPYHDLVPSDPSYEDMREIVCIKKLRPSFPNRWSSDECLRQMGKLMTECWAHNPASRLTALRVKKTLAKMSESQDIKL
T1 sequence (P29597 888-1187 limits assumed): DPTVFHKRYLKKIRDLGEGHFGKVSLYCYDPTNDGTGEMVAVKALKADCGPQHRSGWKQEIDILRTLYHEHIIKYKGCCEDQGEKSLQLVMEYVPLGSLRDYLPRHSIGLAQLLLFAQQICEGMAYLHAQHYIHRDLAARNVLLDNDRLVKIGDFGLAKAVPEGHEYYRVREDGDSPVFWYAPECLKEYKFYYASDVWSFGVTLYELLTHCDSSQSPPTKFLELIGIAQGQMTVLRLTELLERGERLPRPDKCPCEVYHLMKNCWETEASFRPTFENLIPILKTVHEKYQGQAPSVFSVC
T2 sequence (P41240 whole entry): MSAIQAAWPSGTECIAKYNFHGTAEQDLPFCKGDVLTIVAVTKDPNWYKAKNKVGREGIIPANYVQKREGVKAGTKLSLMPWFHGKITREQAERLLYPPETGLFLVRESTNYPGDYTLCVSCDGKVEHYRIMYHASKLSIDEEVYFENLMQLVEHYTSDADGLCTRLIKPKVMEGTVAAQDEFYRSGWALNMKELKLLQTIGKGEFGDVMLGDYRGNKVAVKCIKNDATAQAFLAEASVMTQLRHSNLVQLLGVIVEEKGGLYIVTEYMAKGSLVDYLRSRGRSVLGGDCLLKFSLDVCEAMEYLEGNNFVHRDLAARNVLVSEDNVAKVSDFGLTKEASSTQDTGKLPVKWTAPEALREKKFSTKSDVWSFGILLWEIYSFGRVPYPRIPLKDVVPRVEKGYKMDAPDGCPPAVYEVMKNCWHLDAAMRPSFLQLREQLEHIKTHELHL
T3 sequence (Q8NEB9 whole entry): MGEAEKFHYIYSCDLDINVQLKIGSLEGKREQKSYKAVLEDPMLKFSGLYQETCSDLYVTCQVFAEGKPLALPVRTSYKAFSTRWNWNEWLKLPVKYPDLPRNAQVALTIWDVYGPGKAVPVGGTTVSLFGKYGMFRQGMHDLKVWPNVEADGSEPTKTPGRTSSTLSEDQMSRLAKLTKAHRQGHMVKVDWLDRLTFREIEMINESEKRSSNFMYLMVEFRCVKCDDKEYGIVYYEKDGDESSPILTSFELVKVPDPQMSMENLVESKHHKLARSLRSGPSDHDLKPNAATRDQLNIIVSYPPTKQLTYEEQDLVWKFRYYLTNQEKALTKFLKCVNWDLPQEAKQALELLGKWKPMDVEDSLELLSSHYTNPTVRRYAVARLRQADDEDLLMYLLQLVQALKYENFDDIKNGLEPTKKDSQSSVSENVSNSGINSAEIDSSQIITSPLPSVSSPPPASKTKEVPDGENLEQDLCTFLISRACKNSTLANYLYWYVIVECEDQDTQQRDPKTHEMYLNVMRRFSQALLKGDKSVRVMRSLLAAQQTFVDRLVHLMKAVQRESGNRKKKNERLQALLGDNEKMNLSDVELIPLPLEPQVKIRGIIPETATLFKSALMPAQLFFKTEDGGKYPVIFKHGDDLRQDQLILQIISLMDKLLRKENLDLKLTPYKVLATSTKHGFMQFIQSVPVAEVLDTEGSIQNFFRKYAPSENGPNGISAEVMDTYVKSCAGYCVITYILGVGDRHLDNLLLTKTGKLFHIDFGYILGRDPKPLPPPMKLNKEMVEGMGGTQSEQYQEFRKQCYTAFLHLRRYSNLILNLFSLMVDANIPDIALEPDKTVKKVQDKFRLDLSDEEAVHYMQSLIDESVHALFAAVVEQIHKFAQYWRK
T6 sequence (P51451 whole entry): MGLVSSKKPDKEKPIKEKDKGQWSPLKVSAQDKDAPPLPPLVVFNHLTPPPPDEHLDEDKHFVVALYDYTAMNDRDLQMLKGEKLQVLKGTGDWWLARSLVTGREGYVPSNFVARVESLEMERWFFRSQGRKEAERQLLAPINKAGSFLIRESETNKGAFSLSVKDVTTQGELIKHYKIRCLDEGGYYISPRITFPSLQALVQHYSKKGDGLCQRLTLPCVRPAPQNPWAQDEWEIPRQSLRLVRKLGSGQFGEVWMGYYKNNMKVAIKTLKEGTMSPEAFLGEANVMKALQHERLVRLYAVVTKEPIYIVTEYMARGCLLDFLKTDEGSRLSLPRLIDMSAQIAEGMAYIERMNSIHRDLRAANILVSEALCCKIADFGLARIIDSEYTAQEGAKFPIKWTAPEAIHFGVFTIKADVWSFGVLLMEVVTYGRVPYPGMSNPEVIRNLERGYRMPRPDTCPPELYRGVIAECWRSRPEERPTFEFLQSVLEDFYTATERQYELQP

In the case of `O=C1Nc2c(cc([N+](=O)[O-])c3c2CCCC3)C1=NO` [Compound 5d, 3-(Hydroxyimino)-5-nitro-1,3,6,7,8,9-hexahydro-2H-benzo[g]indol-2-one], the “Inhib. (%)” value was 65% in the test on FLT3 (ITD, D835V); 22% in test [1]; 66% with FLT3 (ITD, F691L); 29% in the test with FLT3 (ITD). Moreover, the inhibition at 10 µM on TYK2 (JH1 domain-cat.) came to 90%; at CSK it was 21%; on VPS34, 27%; on LRRK2 it was 96%; on ABL1 (F317I)-P (first of two lines printed ABL1 (F317I)-P) it was 7%; on ABL1 (F317I)-P (second of two lines printed ABL1 (F317I)-P), 0%. The inhibition at 10 µM at BLK turned out to be 23%; on TIE2, 21%; on BMPR1B, 19%; at FLT3 (R834Q), 10%; on PKN2, 84%.

For the origin of these results see article PMC12300041, “Tricyclic Isatin Derivatives as Anti-Inflammatory Compounds with High Kinase Binding Affinity” (Molecules, 2025).
